The source of these data is patent publication US9457044B2, “Methods and compositions for wound healing” (CoDa Therapeutics, Inc., priority 2006, dated 2016).

Series [1] deals with apoptotic cells. Description: TUNEL staining of granulation tissue. It counts as in vivo, mice. The note with it: 5, 7 and 10 days after wounding. How it is done: (§1) Male, 8 week old, ICR mice were used in the following experiments. All the mice were kept under specific pathogen-free conditions in an environmentally controlled clean room at University College London and all the experiments were carried out under UK Home Office regulations. Mice were anaesthetized by halothane inhalation. Four full-thickness excisional wounds of 6 mm diameter were made on the shaved back on either side of the dorsal midline with a 6 mm biopsy punch (Kai Industries). To each pair of wounds a single topical application of 50 μl of 1 μM Cx43 as ODN (SEQ. ID No. 2) (Sigma-Genosys) in 30% Pluronic F-127 gel (Sigma-Aldrich), chilled on ice, was made to one wound, and an identical application of 1 μM sense control sODNs was made to the other. […] R. and Becker, D. L. (2003). Targeting connexin 43 expression accelerates the rate of wound repair. Curr Biol 13, 1697-703). Each wound region was digitally photographed at the indicated time intervals, and the areas of the wounds were calculated. All wound areas were expressed as percentages of the initial wound areas. […]
Wound tissues were fixed in 4% formaldehyde buffered with PBS, and embedded in paraffin and sectioned. […] TUNEL stained section were imaged and positive cells were counted in the granulation tissue in three random fields, in the two sides and center of each wound (each field was 0.332 mm2).

The subject of series [2] is hydroxyproline. Description: Hydroxyproline analysis of collagen content of wound area. Details: species or system mice. Particulars: mouse, in vivo. How it is done: as §1, with “Targeting connexin 43 expression accelerates the rate of wound repair. Curr Biol 13, 1697-703).” left out
The collagen content of the wound area was assessed by determining the amount of hydroxyproline (HP), a major component of collagen. […] Concentrations of protein were measured using a BCA™ Protein Assay Kit (PIERCE Biotechnology Inc.), and the amounts of HP were determined with Sircol™ Soluble Collagen Assay Kit (Biocolor Ltd.). The data were expressed as amounts of HP/total protein (ng/μg) for each sample.

Series [3] has as its system IGF-7. The experiment in a line: Growth factor/cytokine antibody array of chimera: IGF-7. It counts as cell-based, human. Particulars: after two weeks in culture. The protocol: Cell denuded pig stroma chimeras were cultured for two weeks and then assessed using a growth factor/cytokine antibody array (measures protein levels of 120 different growth factors/cytokines.
After two weeks in culture the chimeras were cut in half: one half for histological analysis, and the other for growth factor and cytokine array analysis. For growth factor and cytokine analysis the central stromal region (with fully recovered human cell epithelium) and partially repopulated stroma (human keratocytes) was removed and homogenised separately from the human limbal rim which contains stem cell populations. The homogenates were run on a growth factor/cytokine array (FIG. 15) and analysis of growth factor levels performed using densitometry analysis of the array membranes.

The test system of series [4] is MPO-positive neutrophils. Description: Neutrophil recruitment into wound site (anti-MPO staining). It counts as in vivo, mice. The note with it: day 1 and 2, versus control. The protocol:
as §1
A treatment-blinded observer counted MPO-positive neutrophils and F4/80-positive macrophages in the wound bed (defined as the area surrounded by unwounded skin, fascia, regenerated epidermis, and eschar) in 3 random high-power fields of 0.332 mm^2. […]

As for “GTAATTGCGGCAGGAGGAATTGTTTCTGTC (antisense GTAATTGCGGCAGGAGGAATTGTTTCTGTC; in Pluronic F-127 gel, further chemistry not given here) [Cx43 asODN]”, the “numbers of TUNEL positive cells, control versus treated” value in series [1] is “no significant differences”. The “hydroxyproline in treated wounds” value in series [2] was “increased”. For the same sequence, the “level of IGF-7 in chimeric stroma compared with untreated controls” value in series [3] is “very high levels”. Further, the “neutrophil numbers at wound site” value in series [4] was “significantly reduced”.
